Our source for the DC50 and Dmax values is patent US12539292B2, “BRM targeting compounds and associated methods of use” (Arvinas Operations, Inc., priority 2018, dated 2026).

Some results are limits rather than exact numbers.

Usually DC50 stands for the concentration at which degradation of the target reaches its halfway point. By Dmax is commonly meant the greatest extent of degradation seen.

This experiment deals with T1, BRM (Homo sapiens, UniProt P51531).
T1 construct: In-Cell Western Screen of BRM Degradation in SW1573 Cells; endogenous in cells; host or cells: SW1573
The experiment in a line: In-cell Western screen of BRM degradation in SW1573 cells (Dmax and DC50). It is filed as cell-based. Conditions: BRM degradation, SW1573 cells; for DC50: read-out: DC50; for Dmax: when tested at the top concentration of between 0.3 and 10 μM, read-out: Dmax (%) (% degraded). In outline: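 SW1573 cells were treated with compound overnight (18-20 h; final DMSO 0.1%), then fixed in 4% PFA, permeabilized with Triton X-100 and blocked. BRM was detected by in-cell Western using 800 nm anti-rabbit and 680 nm anti-mouse secondaries, and Dmax and DC50 were derived from the LI-COR Odyssey signal.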

T1 sequence (P51531 whole entry): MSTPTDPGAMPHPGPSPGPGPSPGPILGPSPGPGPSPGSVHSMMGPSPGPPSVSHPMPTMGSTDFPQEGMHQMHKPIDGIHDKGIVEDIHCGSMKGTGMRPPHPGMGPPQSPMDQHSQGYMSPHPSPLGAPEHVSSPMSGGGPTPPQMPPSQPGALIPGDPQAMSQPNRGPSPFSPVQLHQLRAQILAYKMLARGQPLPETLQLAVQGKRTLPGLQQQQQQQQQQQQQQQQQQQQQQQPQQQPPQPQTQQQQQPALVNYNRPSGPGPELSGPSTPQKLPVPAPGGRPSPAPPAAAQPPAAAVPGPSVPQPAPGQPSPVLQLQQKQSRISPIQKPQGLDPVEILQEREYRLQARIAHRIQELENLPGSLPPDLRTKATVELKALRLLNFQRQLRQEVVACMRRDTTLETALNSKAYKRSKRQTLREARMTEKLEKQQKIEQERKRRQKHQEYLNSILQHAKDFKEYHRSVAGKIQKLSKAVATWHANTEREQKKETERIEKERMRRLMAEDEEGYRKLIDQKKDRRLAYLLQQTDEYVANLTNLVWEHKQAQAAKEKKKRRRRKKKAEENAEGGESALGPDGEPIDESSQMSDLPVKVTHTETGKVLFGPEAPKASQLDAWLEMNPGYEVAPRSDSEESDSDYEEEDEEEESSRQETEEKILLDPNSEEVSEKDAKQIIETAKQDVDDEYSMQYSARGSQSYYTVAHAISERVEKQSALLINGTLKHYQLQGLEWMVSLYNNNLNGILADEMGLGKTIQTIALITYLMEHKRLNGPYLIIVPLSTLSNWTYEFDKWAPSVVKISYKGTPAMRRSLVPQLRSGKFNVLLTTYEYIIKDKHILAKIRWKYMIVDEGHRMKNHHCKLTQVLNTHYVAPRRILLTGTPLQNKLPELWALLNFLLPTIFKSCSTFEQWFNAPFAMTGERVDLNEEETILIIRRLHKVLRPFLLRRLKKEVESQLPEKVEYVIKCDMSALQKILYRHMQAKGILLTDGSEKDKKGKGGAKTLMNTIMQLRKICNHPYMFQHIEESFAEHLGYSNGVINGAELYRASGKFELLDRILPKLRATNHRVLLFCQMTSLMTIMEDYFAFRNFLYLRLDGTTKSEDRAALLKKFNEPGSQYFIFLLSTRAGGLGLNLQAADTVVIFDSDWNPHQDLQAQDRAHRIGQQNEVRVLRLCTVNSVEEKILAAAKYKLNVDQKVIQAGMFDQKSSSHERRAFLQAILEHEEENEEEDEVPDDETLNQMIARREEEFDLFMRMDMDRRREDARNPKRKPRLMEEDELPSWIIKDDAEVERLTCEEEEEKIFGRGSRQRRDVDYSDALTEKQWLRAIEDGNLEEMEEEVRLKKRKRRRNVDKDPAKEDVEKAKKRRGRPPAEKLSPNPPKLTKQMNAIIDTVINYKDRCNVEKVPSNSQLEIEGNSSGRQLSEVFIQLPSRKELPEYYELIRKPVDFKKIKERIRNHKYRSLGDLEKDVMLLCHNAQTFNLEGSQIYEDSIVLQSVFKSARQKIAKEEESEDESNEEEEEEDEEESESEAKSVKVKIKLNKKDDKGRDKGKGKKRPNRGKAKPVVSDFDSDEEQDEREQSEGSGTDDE

With `CC(=O)N1CC(NC(=O)[C@@H]2C[C@@H](O)CN2C(=O)[C@@H](c2cc(OCCN3CCN(CCOc4cc(N5C6CCC5CN(c5cc(-c7ccccc7O)nnc5N)C6)ccn4)CC3)no2)C(C)C)(c2ccc(-c3scnc3C)cc2)C1` [compound 127, (2S,4R)-N-(1-acetyl-3-(4-(4-methylthiazol-5-yl)phenyl)azetidin-3-yl)-1-((2R)-2-(3-(2-(4-(2-((4-(3-(3-amino-6-(2-hydroxyphenyl)pyridazin-4-yl)-3,8-diazabicyclo[3.2.1]octan-8-yl)pyridin-2-yl)oxy)ethyl)piperazin-1-yl)ethoxy)isoxazol-5-yl)-3-methylbutanoyl)-4-hydroxypyrrolidine-2-carboxamide], the DC50 lay in the range of 10 to 30 nM and the Dmax is > 75%.

Consider `CCOC[C@H](NC(=O)[C@@H]1C[C@@H](O)CN1C(=O)[C@@H](c1cc(OCCN2CCN(CCOc3cc(N4C5CCC4CN(c4cc(-c6ccccc6O)nnc4N)C5)ccn3)CC2)no1)C(C)C)c1ccc(-c2scnc2C)cc1` [compound 128, (2S,4R)-1-((2R)-2-(3-(2-(4-(2-((4-(3-(3-amino-6-(2-hydroxyphenyl)pyridazin-4-yl)-3,8-diazabicyclo[3.2.1]octan-8-yl)pyridin-2-yl)oxy)ethyl)piperazin-1-yl)ethoxy)isoxazol-5-yl)-3-methylbutanoyl)-N-((R)-2-ethoxy-1-(4-(4-methylthiazol-5-yl)phenyl)ethyl)-4-hydroxypyrrolidine-2-carboxamide], for which the DC50 was < 2.5 nM and the Dmax is > 75%.

As for `Cc1ncsc1-c1ccc([C@H](COCC(C)C)NC(=O)[C@@H]2C[C@@H](O)CN2C(=O)[C@@H](c2cc(OCCN3CCN(CCOc4cc(N5C6CCC5CN(c5cc(-c7ccccc7O)nnc5N)C6)ccn4)CC3)no2)C(C)C)cc1` [compound 129, (2S,4R)-1-((2R)-2-(3-(2-(4-(2-((4-(3-(3-amino-6-(2-hydroxyphenyl)pyridazin-4-yl)-3,8-diazabicyclo[3.2.1]octan-8-yl)pyridin-2-yl)oxy)ethyl)piperazin-1-yl)ethoxy)isoxazol-5-yl)-3-methylbutanoyl)-4-hydroxy-N-((R)-2-isobutoxy-1-(4-(4-methylthiazol-5-yl)phenyl)ethyl)pyrrolidine-2-carboxamide], the DC50 is > 30 nM.

In the case of `Cc1ncsc1-c1ccc([C@H](COCC2CCOCC2)NC(=O)[C@@H]2C[C@@H](O)CN2C(=O)[C@@H](c2cc(OCCN3CCN(CCOc4cc(N5C6CCC5CN(c5cc(-c7ccccc7O)nnc5N)C6)ccn4)CC3)no2)C(C)C)cc1` [compound 130, (2S,4R)-1-((2R)-2-(3-(2-(4-(2-((4-(3-(3-amino-6-(2-hydroxyphenyl)pyridazin-4-yl)-3,8-diazabicyclo[3.2.1]octan-8-yl)pyridin-2-yl)oxy)ethyl)piperazin-1-yl)ethoxy)isoxazol-5-yl)-3-methylbutanoyl)-4-hydroxy-N-((R)-1-(4-(4-methylthiazol-5-yl)phenyl)-2-((tetrahydro-2H-pyran-4-yl)methoxy)ethyl)pyrrolidine-2-carboxamide], the DC50 was 2.5 to 10 nM and the Dmax was > 75%.

Regarding `Cc1ncsc1-c1ccc([C@@H](NC(=O)[C@@H]2C[C@@H](O)CN2C(=O)[C@@H](c2cc(OCCN3CCN(CCOc4cc(N5C6CCC5CN(c5cc(-c7ccccc7O)nnc5N)C6)ccn4)CC3)no2)C(C)C)C(=O)N(C)C)cc1` [compound 131, (2S,4R)-1-((2R)-2-(3-(2-(4-(2-((4-(3-(3-amino-6-(2-hydroxyphenyl)pyridazin-4-yl)-3,8-diazabicyclo[3.2.1]octan-8-yl)pyridin-2-yl)oxy)ethyl)piperazin-1-yl)ethoxy)isoxazol-5-yl)-3-methylbutanoyl)-N-((R)-2-(dimethylamino)-1-(4-(4-methylthiazol-5-yl)phenyl)-2-oxoethyl)-4-hydroxypyrrolidine-2-carboxamide], the DC50 was < 2.5 nM and the Dmax was > 75%.

For `Cc1ncsc1-c1ccc([C@H](C)NC(=O)[C@@H]2C[C@@H](O)CN2C(=O)[C@@H](c2cc(OCCN3C4CC3CN(CCOc3cc(N5C6CCC5CN(c5cc(-c7ccccc7O)nnc5N)C6)ccn3)C4)no2)C(C)C)cc1` [compound 132, (2S,4R)-1-((2R)-2-(3-(2-(3-(2-((4-(3-(3-amino-6-(2-hydroxyphenyl)pyridazin-4-yl)-3,8-diazabicyclo[3.2.1]octan-8-yl)pyridin-2-yl)oxy)ethyl)-3,6-diazabicyclo[3.1.1]heptan-6-yl)ethoxy)isoxazol-5-yl)-3-methylbutanoyl)-4-hydroxy-N-((S)-1-(4-(4-methylthiazol-5-yl)phenyl)ethyl)pyrrolidine-2-carboxamide], the DC50 is 2.5 to 10 nM and the Dmax was > 75%.

With `Cc1ncsc1-c1ccc([C@H](C)NC(=O)[C@@H]2C[C@@H](O)CN2C(=O)[C@@H](c2cc(OCCN3CC4CC(C3)N4CCOc3cc(N4C5CCC4CN(c4cc(-c6ccccc6O)nnc4N)C5)ccn3)no2)C(C)C)cc1` [compound 133, (2S,4R)-1-((2R)-2-(3-(2-(6-(2-((4-(3-(3-amino-6-(2-hydroxyphenyl)pyridazin-4-yl)-3,8-diazabicyclo[3.2.1]octan-8-yl)pyridin-2-yl)oxy)ethyl)-3,6-diazabicyclo[3.1.1]heptan-3-yl)ethoxy)isoxazol-5-yl)-3-methylbutanoyl)-4-hydroxy-N-((S)-1-(4-(4-methylthiazol-5-yl)phenyl)ethyl)pyrrolidine-2-carboxamide], the DC50 was < 2.5 nM and the Dmax is > 75%.

Turning to `Cc1ncsc1-c1ccc([C@H](C)NC(=O)[C@@H]2C[C@@H](O)CN2C(=O)[C@@H](c2cc(CCCN3CCN(CCOc4cc(N5C6CCC5CN(c5cc(-c7ccccc7O)nnc5N)C6)ccn4)CC3)no2)C(C)C)cc1` [compound 134, (2S,4R)-1-((2R)-2-(3-(3-(4-(2-((4-(3-(3-amino-6-(2-hydroxyphenyl)pyridazin-4-yl)-3,8-diazabicyclo[3.2.1]octan-8-yl)pyridin-2-yl)oxy)ethyl)piperazin-1-yl)propyl)isoxazol-5-yl)-3-methylbutanoyl)-4-hydroxy-N-((S)-1-(4-(4-methylthiazol-5-yl)phenyl)ethyl)pyrrolidine-2-carboxamide], the 50% degradation concentration (DC50) was < 2.5 nM and the Dmax is > 75%.

Consider `Cc1ncsc1-c1ccc([C@H](C)NC(=O)[C@@H]2C[C@@H](O)CN2C(=O)[C@@H](c2cc(OCCN3C[C@@H]4C[C@H]3CN4CCOc3cc(N4C5CCC4CN(c4cc(-c6ccccc6O)nnc4N)C5)ccn3)no2)C(C)C)cc1` [compound 135, (2S,4R)-1-((2R)-2-(3-(2-((1S,4S)-5-(2-((4-(3-(3-amino-6-(2-hydroxyphenyl)pyridazin-4-yl)-3,8-diazabicyclo[3.2.1]octan-8-yl)pyridin-2-yl)oxy)ethyl)-2,5-diazabicyclo[2.2.1]heptan-2-yl)ethoxy)isoxazol-5-yl)-3-methylbutanoyl)-4-hydroxy-N-((S)-1-(4-(4-methylthiazol-5-yl)phenyl)ethyl)pyrrolidine-2-carboxamide], for which the DC50 was < 2.5 nM and the Dmax was > 75%.

Regarding `Cc1ncsc1-c1ccc([C@H](C)NC(=O)[C@@H]2C[C@@H](O)CN2C(=O)[C@@H](c2cc(OCCN3C[C@H]4C[C@@H]3CN4CCOc3cc(N4C5CCC4CN(c4cc(-c6ccccc6O)nnc4N)C5)ccn3)no2)C(C)C)cc1` [compound 136, (2S,4R)-1-((2R)-2-(3-(2-((1R,4R)-5-(2-((4-(3-(3-amino-6-(2-hydroxyphenyl)pyridazin-4-yl)-3,8-diazabicyclo[3.2.1]octan-8-yl)pyridin-2-yl)oxy)ethyl)-2,5-diazabicyclo[2.2.1]heptan-2-yl)ethoxy)isoxazol-5-yl)-3-methylbutanoyl)-4-hydroxy-N-((S)-1-(4-(4-methylthiazol-5-yl)phenyl)ethyl)pyrrolidine-2-carboxamide], the DC50 was < 2.5 nM and the Dmax was > 75%.

On to `Cc1ncsc1-c1ccc([C@H](C)NC(=O)[C@@H]2C[C@@H](O)CN2C(=O)[C@@H](c2cc(OCCN3CCN(CCOc4cc(N5C6CCC5CN(c5cc(-c7ccccc7O)nnc5N)C6)ccn4)[C@H](C)C3)no2)C(C)C)cc1` [compound 139, (2S,4R)-1-((2R)-2-(3-(2-((3R)-4-(2-((4-(3-(3-amino-6-(2-hydroxyphenyl)pyridazin-4-yl)-3,8-diazabicyclo[3.2.1]octan-8-yl)pyridin-2-yl)oxy)ethyl)-3-methylpiperazin-1-yl)ethoxy)isoxazol-5-yl)-3-methylbutanoyl)-4-hydroxy-N-((S)-1-(4-(4-methylthiazol-5-yl)phenyl)ethyl)pyrrolidine-2-carboxamide], for which the DC50 is < 2.5 nM and the Dmax was > 75%.

Take `Cc1ncsc1-c1ccc([C@H](C)NC(=O)[C@@H]2C[C@@H](O)CN2C(=O)[C@@H](c2cc(OCCN3CCN(CCOc4cc(N5C6CCC5CN(c5cc(-c7ccccc7O)nnc5N)C6)ccn4)[C@@H](C)C3)no2)C(C)C)cc1` [compound 140, (2S,4R)-1-((2R)-2-(3-(2-((3S)-4-(2-((4-(3-(3-amino-6-(2-hydroxyphenyl)pyridazin-4-yl)-3,8-diazabicyclo[3.2.1]octan-8-yl)pyridin-2-yl)oxy)ethyl)-3-methylpiperazin-1-yl)ethoxy)isoxazol-5-yl)-3-methylbutanoyl)-4-hydroxy-N-((S)-1-(4-(4-methylthiazol-5-yl)phenyl)ethyl)pyrrolidine-2-carboxamide]: the DC50 is < 2.5 nM and the Dmax was > 75%.

As to `Cc1ncsc1-c1ccc([C@H](C)NC(=O)[C@@H]2C[C@@H](O)CN2C(=O)[C@@H](c2cc(OCCN3CCN(CCOc4cc(N5C6CCC5CN(c5cc(-c7ccccc7O)nnc5N)C6)ccn4)C[C@@H]3C)no2)C(C)C)cc1` [compound 141, (2S,4R)-1-((2R)-2-(3-(2-((2S)-4-(2-((4-(3-(3-amino-6-(2-hydroxyphenyl)pyridazin-4-yl)-3,8-diazabicyclo[3.2.1]octan-8-yl)pyridin-2-yl)oxy)ethyl)-2-methylpiperazin-1-yl)ethoxy)isoxazol-5-yl)-3-methylbutanoyl)-4-hydroxy-N-((S)-1-(4-(4-methylthiazol-5-yl)phenyl)ethyl)pyrrolidine-2-carboxamide], the DC50 is < 2.5 nM and the Dmax is > 75%.
